Results taken from US20100286145A1, “ISOPHTHALAMIDE DERIVATIVES INHIBITING BETA-SECRETASE ACTIVITY” (CoMentis, Inc., priority 2007, published 2010).
Like-named read-outs stand apart in the source and are kept apart here.

What was measured:
memapsin 2 = memapsin 2 (Homo sapiens, UniProt P56817); assay: Inhibition of memapsin 2 beta-secretase activity (fluorogenic substrate FS-2); format: biochemical; settings: memapsin 2, pH 4, 37° C., read-out: M2Ki
Method in brief: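 Memapsin 2 pre-incubated 20 min with compound at pH 4, 37° C, then FS-2 substrate (MCA-SEVNLDAEFK-DNP, APP Swedish cleavage site) added. Rate of fluorescence increase compared with uninhibited controls, fitted to a tight-binding inhibition model.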

[1] = tested on: Aβ production in Chinese hamster ovary cells that over-express human APP695 with the London and Swedish mutations; assay: Cellular Aβ IC50 determination (Aβ40 sandwich ELISA); format: cell-based; settings: Cricetulus griseus; cellular Aβ production; read-out: IC50
Method in brief: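 CHO cells overexpressing human APP695 with London and Swedish mutations, seeded at 10% confluency, treated with compounds up to about 4 μM final (0.4% DMSO). Secreted Aβ40 measured by sandwich ELISA relative to control and fitted to a 4-parameter IC50 model.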

memapsin 2, sequence (P56817 46-501): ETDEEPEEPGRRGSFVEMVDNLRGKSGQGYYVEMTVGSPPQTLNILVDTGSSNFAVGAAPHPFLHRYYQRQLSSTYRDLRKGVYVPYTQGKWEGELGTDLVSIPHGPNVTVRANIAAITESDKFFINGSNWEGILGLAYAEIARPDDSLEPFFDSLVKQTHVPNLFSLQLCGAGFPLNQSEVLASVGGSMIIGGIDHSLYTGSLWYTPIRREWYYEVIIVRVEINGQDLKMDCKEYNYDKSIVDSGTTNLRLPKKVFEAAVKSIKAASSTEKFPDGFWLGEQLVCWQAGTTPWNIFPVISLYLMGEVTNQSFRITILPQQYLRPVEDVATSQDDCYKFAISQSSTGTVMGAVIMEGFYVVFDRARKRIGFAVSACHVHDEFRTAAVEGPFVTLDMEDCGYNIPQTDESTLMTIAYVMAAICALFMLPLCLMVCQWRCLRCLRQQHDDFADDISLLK

Row | Ki (memapsin 2; 20 minutes pre-incubation) [nM] | IC50 [1] [nM] | Ki (memapsin 2; fluorogenic substrate FS-2) [nM] | SMILES
1 | < 300 | < 1000 | – | COc1cccc(CNC[C@@H](O)[C@H](Cc2ccccc2)NC(=O)c2cc(NO)cc(C(=O)N(C)Cc3nc(C)cs3)c2)c1 [Compound 117, N1-((2S,3R)-3-hydroxy-4-(3-methoxybenzylamino)-1-phenylbutan-2-yl)-5-(hydroxyamino)-N3-methyl-N3-((4-methylthiazol-2-yl)methyl)isophthalamide]
2 | – | < 1000 | < 300 | Cc1csc(CN(C)C(=O)c2cc(C(=O)N[C@@H](Cc3ccccc3)[C@H](O)CNCc3cncc(C(C)(C)F)c3)cc(C(F)F)c2)n1 [Compound 293, 5-(difluoromethyl)-N1-((2S,3R)-4-((5-(2-fluoropropan-2-yl)pyridin-3-yl)methylamino)-3-hydroxy-1-phenylbutan-2-yl)-N3-methyl-N3-((4-methylthiazol-2-yl)methyl)isophthalamide]
3 | – | < 1000 | 301 to 500 | CO/C=C(/C)c1cncc(CNC[C@@H](O)[C@H](Cc2ccccc2)NC(=O)c2cccc(C(=O)N(C)Cc3nc(C)cs3)c2)c1 [Compound 279, N1-((2S,3R)-3-hydroxy-4-((5-((Z)-1-methoxyprop-1-en-2-yl)pyridin-3-yl)methylamino)-1-phenylbutan-2-yl)-N3-methyl-N3-((4-methylthiazol-2-yl)methyl)isophthalamide]
4 | < 300 | < 1000 | – | Cc1csc(CN(C)C(=O)c2cccc(C(=O)N[C@@H](Cc3ccccc3)[C@H](O)CNCc3cc(C(C)C)ccn3)c2)n1 [Compound 5, N1-((2S,3R)-3-hydroxy-4-((4-isopropylpyridin-2-yl)methylamino)-1-phenylbutan-2-yl)-N3-methyl-N3-((4-methylthiazol-2-yl)methyl)isophthalamide]
5 | < 300 | < 1000 | – | Cc1csc(CN(C(=O)c2cccc(C(=O)N[C@@H](Cc3ccccc3)[C@H](O)CNCc3cccc(OC(F)(F)F)c3)c2)C2CC2)n1 [Compound 51, N1-cyclopropyl-N3-((2S,3R)-3-hydroxy-1-phenyl-4-(3-(trifluoromethoxy)benzylamino)butan-2-yl)-N1-((4-methylthiazol-2-yl)methyl)isophthalamide]
6 | > 501 | > 5000 | – | COc1cccc(NC[C@@H](O)[C@H](Cc2ccccc2)NC(=O)c2cccc(C(=O)N(C)Cc3nc(C)cs3)c2)c1 [Compound 166, N1-((2S,3R)-3-hydroxy-4-(3-methoxyphenylamino)-1-phenylbutan-2-yl)-N3-methyl-N3-((4-methylthiazol-2-yl)methyl)isophthalamide]
7 | < 300 | < 1000 | – | Cc1csc(CN(C)C(=O)c2cccc(C(=O)N[C@@H](Cc3ccccc3)[C@H](O)CNCc3cc(C(C)(C)C)ccc3O)c2)n1 [Compound 111, N1-((2S,3R)-4-(5-tert-butyl-2-hydroxybenzylamino)-3-hydroxy-1-phenylbutan-2-yl)-N3-methyl-N3-((4-methylthiazol-2-yl)methyl)isophthalamide]
8 | 301 to 500 | < 1000 | – | COC(=O)c1cccc(CNC[C@@H](O)[C@H](Cc2ccccc2)NC(=O)c2cccc(C(=O)N(C)Cc3nc(C)cs3)c2)c1 [Compound 141, methyl 3-(((2R,3S)-2-hydroxy-3-(3-(methyl((4-methylthiazol-2-yl)methyl)carbamoyl)benzamido)-4-phenylbutylamino)methyl)benzoate]
9 | > 501 | > 5000 | – | Cc1csc(CN(C)C(=O)c2cccc(C(=O)N[C@@H](Cc3ccccc3)[C@H](O)CNCc3cccc(N)c3)c2)n1 [Compound 191, N1-((2S,3R)-4-(3-aminobenzylamino)-3-hydroxy-1-phenylbutan-2-yl)-N3-methyl-N3-((4-methylthiazol-2-yl)methyl)isophthalamide]
10 | < 300 | < 1000 | – | Cc1csc(CN(C)C(=O)c2cc(C(=O)N[C@@H](Cc3ccccc3)[C@H](O)CNCc3cncc(C(C)C)c3)cc(N(C)C)c2)n1 [Compound 162, 5-(dimethylamino)-N1-((2S,3R)-3-hydroxy-4-((5-isopropylpyridin-3-yl)methylamino)-1-phenylbutan-2-yl)-N3-methyl-N3-((4-methylthiazol-2-yl)methyl)isophthalamide]
11 | > 501 | > 5000 | – | Cc1csc(CN(C)C(=O)c2cccc(C(=O)N[C@@H](Cc3ccccc3)[C@H](O)CNCc3cccc(O)c3)c2)n1 [Compound 73, N1-((2S,3R)-3-hydroxy-4-(3-hydroxybenzylamino)-1-phenylbutan-2-yl)-N3-methyl-N3-((4-methylthiazol-2-yl)methyl)isophthalamide]
12 | < 300 | 1000 to 5000 | – | COC(=O)c1cc(CNC[C@@H](O)[C@H](Cc2ccccc2)NC(=O)c2cccc(C(=O)N(C)Cc3nc(C)cs3)c2)cc(N(C)S(C)(=O)=O)c1 [Compound 134, methyl 3-(((2R,3S)-2-hydroxy-3-(3-(methyl((4-methylthiazol-2-yl)methyl)carbamoyl)benzamido)-4-phenylbutylamino)methyl)-5-(N-methylmethylsulfonamido)benzoate]
13 | < 300 | < 1000 | – | C[C@@H](NC(=O)c1cc(C(=O)N[C@@H](Cc2ccccc2)[C@H](O)CNCc2cccc(C(C)(F)F)c2)cc(N(C)S(C)(=O)=O)c1)c1ccccc1 [Compound 144, N1-((2S,3R)-4-(3-(1,1-difluoroethyl)benzylamino)-3-hydroxy-1-phenylbutan-2-yl)-5-(N-methylmethylsulfonamido)-N3-((R)-1-phenylethyl)isophthalamide]
14 | < 300 | 1000 to 5000 | – | CNC(=O)c1cc(C(=O)N[C@@H](Cc2ccccc2)[C@H](O)CNCc2cccc(OC)c2)cc(C(=O)N(C)Cc2nc(C)cs2)c1 [Compound 98, N1-((2S,3R)-3-hydroxy-4-(3-methoxybenzylamino)-1-phenylbutan-2-yl)-N3,N5-dimethyl-N3-((4-methylthiazol-2-yl)methyl)benzene-1,3,5-tricarboxamide]
15 | < 300 | < 1000 | – | Cc1csc(CN(C)C(=O)c2cccc(C(=O)N[C@@H](Cc3ccccc3)[C@H](O)CN[C@@H](C)c3cncc(C(C)C)c3)c2)n1 [Compound 182, N1-((2S,3R)-3-hydroxy-4-((S)-1-(5-isopropylpyridin-3-yl)ethylamino)-1-phenylbutan-2-yl)-N3-methyl-N3-((4-methylthiazol-2-yl)methyl)isophthalamide]
16 | < 300 | < 1000 | – | COc1cccc(C(C)(C)NC[C@@H](O)[C@H](Cc2ccccc2)NC(=O)c2cccc(C(=O)N(C)Cc3nc(C)cs3)c2)c1 [Compound 163, N1-((2S,3R)-3-hydroxy-4-(2-(3-methoxyphenyl)propan-2-ylamino)-1-phenylbutan-2-yl)-N3-methyl-N3-((4-methylthiazol-2-yl)methyl)isophthalamide]
17 | < 300 | > 5000 | – | COc1cccc(CNC[C@@H](O)[C@H](Cc2ccccc2)NC(=O)c2cc(C(=O)NCc3nc(C)cs3)cc(N3CCCC3)c2)c1 [Compound 187, N1-((2S,3R)-3-hydroxy-4-(3-methoxybenzylamino)-1-phenylbutan-2-yl)-N3-((4-methylthiazol-2-yl)methyl)-5-(pyrrolidin-1-yl)isophthalamide]
18 | < 300 | < 1000 | – | COc1cccc(CNC[C@@H](O)[C@H](Cc2ccccc2)NC(=O)c2cc(OS(C)(=O)=O)cc(C(=O)N[C@H](C)c3ccccc3)c2)c1 [Compound 70, 3-((2S,3R)-3-hydroxy-4-(3-methoxybenzylamino)-1-phenylbutan-2-ylcarbamoyl)-5-((R)-1-phenylethylcarbamoyl)phenyl methanesulfonate]
19 | < 300 | < 1000 | – | COc1cccc(CNC[C@@H](O)[C@H](Cc2ccccc2)NC(=O)c2cc(OS(C)(=O)=O)cc(C(=O)N(C)Cc3nc(C)cs3)c2)c1 [Compound 67, 3-((2S,3R)-3-hydroxy-4-(3-methoxybenzylamino)-1-phenylbutan-2-ylcarbamoyl)-5-(methyl((4-methylthiazol-2-yl)methyl)carbamoyl)phenyl methanesulfonate]
20 | < 300 | < 1000 | – | COc1cccc(CNC[C@@H](O)[C@H](Cc2ccccc2)NC(=O)c2cc(C(=O)N(C)Cc3nc(C)cs3)cc(N(C)C)c2)c1 [Compound 65, 5-(dimethylamino)-N1-((2S,3R)-3-hydroxy-4-(3-methoxybenzylamino)-1-phenylbutan-2-yl)-N3-methyl-N3-((4-methylthiazol-2-yl)methyl)isophthalamide]
21 | > 501 | 1000 to 5000 | – | Cc1csc(CN(C)C(=O)c2cccc(C(=O)N[C@@H](Cc3ccccc3)[C@H](O)CNCc3cnn(C(C)(C)C)c3C)c2)n1 [Compound 118, N1-((2S,3R)-4-((1-tert-butyl-5-methyl-1H-pyrazol-4-yl)methylamino)-3-hydroxy-1-phenylbutan-2-yl)-N3-methyl-N3-((4-methylthiazol-2-yl)methyl)isophthalamide]
22 | – | < 1000 | < 300 | COc1cccc(CNC[C@@H](O)[C@H](Cc2ccccc2)NC(=O)c2cc(C(=O)N(C)Cc3nc(C)cs3)cc(-n3cccc3)c2)c1 [Compound 238, N1-((2S,3R)-3-hydroxy-4-(3-methoxybenzylamino)-1-phenylbutan-2-yl)-N3-methyl-N3-((4-methylthiazol-2-yl)methyl)-5-(1H-pyrrol-1-yl)isophthalamide]
23 | – | < 1000 | < 300 | CC(=O)Nc1cc(CNC[C@@H](O)[C@H](Cc2ccccc2)NC(=O)c2cccc(C(=O)N(C)Cc3nc(C)cs3)c2)cc(C(F)(F)F)c1 [Compound 276, N1-((2S,3R)-4-(3-acetamido-5-(trifluoromethyl)benzylamino)-3-hydroxy-1-phenylbutan-2-yl)-N3-methyl-N3-((4-methylthiazol-2-yl)methyl)isophthalamide]
